Measurements: ChEMBL document CHEMBL1150719, “Constituents of Tritonia crocosmaeflora, I. Tricrozarin A, a novel antimicrobial naphthazarin derivative” (1987)
Converted amounts (≈) assume the structure as drawn.

Columns and labels:
Format in all cases: functional
Saccharomyces = test: Antifungal activity against Saccharomyces sake KF26 at 27 degC by paper disk assay
Candida albicans = test: Antifungal activity against Candida albicans KF1 at 27 degC by paper disk assay
Bacillus subtilis = test: Antibacterial activity against Bacillus subtilis PCI 219 after 24 hrs at 37 degC by paper disk assay; details: PCI 219, 24 h
Mucor racemosus = test: Antifungal activity against Mucor racemosus IFO 5403 at 27 degC by paper disk assay
Micrococcus luteus = test: Antibacterial activity against Micrococcus luteus ATCC 9341 after 24 hrs at 37 degC by paper disk assay; details: ATCC 9341, 24 h
Aspergillus niger = test: Antifungal activity against Aspergillus niger ATCC 6275 at 27 degC by paper disk assay

COC1=C(OC)C(=O)c2c(O)c3c(c(O)c2C1=O)OCO3 [TRICROZARIN A]
MIC (Saccharomyces): 81.3 µg/mL (≈ 276 µM) | MIC (Candida albicans): 81.3 µg/mL (≈ 276 µM) | MIC (Bacillus subtilis): 5.1 µg/mL (≈ 17.3 µM) | MIC (Mucor racemosus): 10.2 µg/mL (≈ 34.7 µM) | MIC (Micrococcus luteus): 112 µg/mL (≈ 381 µM) | MIC (Aspergillus niger): 81.3 µg/mL (≈ 276 µM)
